The results in this text go back to ChEMBL document CHEMBL1201862, “PubChem BioAssay data set” (2004).

For assay [1], the target named is Scavenger receptor class B member 1 (Mus musculus, UniProt Q61009). Briefly: mouse SR-BI DiI-HDL uptake blockers – ldlA[mSR-BI] cells, fluorescence, cherry pick, dose response (AID 493194).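 Further: cellular uptake of fluorescent DiI-labeled HDL measured as cell fluorescence.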 It counts as functional, cell-based.
Assay [2] concerns the target Serine/threonine-protein phosphatase PP1-alpha catalytic subunit (Homo sapiens, UniProt P62136). Put plainly: inhibition of protein phosphatase 1 activity – biochemical, fluorescence, dose response (AID 2403).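 Further: phosphatase turnover of OMFP into fluorescent 3-O-methylfluorescein.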
The target in assay [3] is Glyceraldehyde-3-phosphate dehydrogenase (Homo sapiens, UniProt P04406).
Chain of Glyceraldehyde-3-phosphate dehydrogenase (P04406 whole entry): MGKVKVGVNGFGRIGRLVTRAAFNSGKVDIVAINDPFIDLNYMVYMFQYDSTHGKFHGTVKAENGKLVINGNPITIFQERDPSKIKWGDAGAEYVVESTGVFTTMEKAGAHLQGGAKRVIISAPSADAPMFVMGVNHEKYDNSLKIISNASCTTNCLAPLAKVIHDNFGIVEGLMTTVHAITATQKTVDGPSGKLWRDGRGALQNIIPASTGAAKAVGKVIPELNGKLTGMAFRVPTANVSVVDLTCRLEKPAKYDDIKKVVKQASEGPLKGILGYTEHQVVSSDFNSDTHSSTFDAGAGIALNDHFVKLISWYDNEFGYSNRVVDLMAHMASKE
The nature of assay [4]: Trypanosoma cruzi growth suppression in host cells – NIH3T3 host cells, beta-gal luminescence, confirmation (AID 2044).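 Further: intracellular parasites grown in NIH/3T3 mouse fibroblasts as host cells; luminescent beta-galactosidase reporter signal from transgenic T. cruzi replicating inside host cells; inhibitors lower the luminescence signal.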 It counts as functional, cell-based.
For assay [5], the target named is Serine/threonine-protein phosphatase (Homo sapiens, UniProt Q9BPW0). Put plainly: Counterscreen for inhibitors of PP1: fluorescence-based biochemical high throughput dose response assay to identify inhibitors of Protein Phosphatase 5 (PP5). [Related pubchem assays: 2034 (Summary (PP5 inhibitors)), 1987 (PP5 inhibitors in singlate), 2235 (PP1 inhibitors in singlate)]. On the technique in general: The purpose of a counterscreen is to sort out artefacts and off-target activity.
Chain of Serine/threonine-protein phosphatase (Q9BPW0 whole entry): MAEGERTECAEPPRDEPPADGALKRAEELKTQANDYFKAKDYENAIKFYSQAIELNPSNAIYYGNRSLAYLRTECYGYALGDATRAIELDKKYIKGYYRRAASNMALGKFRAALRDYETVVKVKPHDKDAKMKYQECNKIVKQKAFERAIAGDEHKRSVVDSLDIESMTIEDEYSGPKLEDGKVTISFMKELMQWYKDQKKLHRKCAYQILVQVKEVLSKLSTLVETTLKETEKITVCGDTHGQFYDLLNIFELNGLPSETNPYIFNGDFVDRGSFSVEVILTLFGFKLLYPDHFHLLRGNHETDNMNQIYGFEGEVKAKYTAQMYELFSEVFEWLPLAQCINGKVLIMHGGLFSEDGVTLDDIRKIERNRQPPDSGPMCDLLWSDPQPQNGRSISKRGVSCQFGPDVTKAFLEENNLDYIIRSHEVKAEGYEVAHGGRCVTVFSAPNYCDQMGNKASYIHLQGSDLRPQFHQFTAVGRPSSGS

Assay [6] is described as follows: NIH3T3 cell viability loss – ATP luminescence, mouse fibroblasts, counter-screen, dose response (AID 2010).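 Further: cells exposed to compound for about 90 hours before reading.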 It counts as functional, cell-based.
Assay [7] has as its target Voltage-dependent T-type calcium channel subunit alpha-1H (Homo sapiens, UniProt O95180). It counts as functional.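 Further: channel activity triggered by adding a high calcium stimulation buffer.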
A short description of assay [8]: THP-1 cell cytotoxicity, dose response, cytotoxicity control for non-replicating M. tuberculosis project (AID 489025). It counts as functional.
Assay [9] can be described thus: Vero E6 cell cytotoxicity, dose response, cytotoxicity control for non-replicating M. tuberculosis project, secondary assay (AID 492998). It counts as functional, VeroE6. The conditions noted are these: Vero C1008.
The target in another assay is Nonstructural protein 1 (Influenza A virus, UniProt Q194T2). It counts as functional, Influenza A virus (A/California/07/2009(H1N1)).
Chain of Nonstructural protein 1 (Q194T2 whole entry): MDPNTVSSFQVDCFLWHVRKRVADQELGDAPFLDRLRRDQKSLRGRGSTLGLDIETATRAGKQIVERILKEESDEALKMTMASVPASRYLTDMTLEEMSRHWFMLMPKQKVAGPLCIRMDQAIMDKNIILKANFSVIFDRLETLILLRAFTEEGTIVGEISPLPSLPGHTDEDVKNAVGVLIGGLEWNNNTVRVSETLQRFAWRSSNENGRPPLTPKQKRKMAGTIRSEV
A short description of a further assay: cells. It counts as functional.
Assay [10] has as its target Neuropeptides B/W receptor type 1 (Homo sapiens, UniProt P48145). Briefly: Fluorescence-based dose response cell-based high throughput screening assay to identify antagonists of the G-protein coupled receptor 7 (GPR7). [Related pubchem assays: 1952 (Screening assay (GPR7 antagonists).), 1880 (Summary AID.)]. It counts as functional.
For assay [11], the target named is Melanin-concentrating hormone receptor 1 (Homo sapiens, UniProt Q99705). Briefly: Fluorescence-based counterscreen for antagonists of the G-protein coupled receptor 7 (GPR7): cell-based high throughput dose response assay to identify antagonists of the melanin-concentrating hormone receptor 1 (MCHR1). It counts as functional.
Chain of Melanin-concentrating hormone receptor 1 (Q99705 whole entry): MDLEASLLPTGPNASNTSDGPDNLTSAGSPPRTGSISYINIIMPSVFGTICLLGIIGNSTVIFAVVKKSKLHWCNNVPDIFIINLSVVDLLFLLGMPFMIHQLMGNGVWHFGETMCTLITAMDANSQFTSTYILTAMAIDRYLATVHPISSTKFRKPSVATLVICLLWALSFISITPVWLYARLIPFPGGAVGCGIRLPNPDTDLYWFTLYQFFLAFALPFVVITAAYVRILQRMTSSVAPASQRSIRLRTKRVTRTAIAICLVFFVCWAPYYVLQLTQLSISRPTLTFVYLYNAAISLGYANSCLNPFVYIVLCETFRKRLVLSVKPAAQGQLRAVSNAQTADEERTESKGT
Assay [12] concerns the target T1, Heat shock factor protein 1 (Mus musculus, UniProt P38532).
T1 sequence (P38532 whole entry): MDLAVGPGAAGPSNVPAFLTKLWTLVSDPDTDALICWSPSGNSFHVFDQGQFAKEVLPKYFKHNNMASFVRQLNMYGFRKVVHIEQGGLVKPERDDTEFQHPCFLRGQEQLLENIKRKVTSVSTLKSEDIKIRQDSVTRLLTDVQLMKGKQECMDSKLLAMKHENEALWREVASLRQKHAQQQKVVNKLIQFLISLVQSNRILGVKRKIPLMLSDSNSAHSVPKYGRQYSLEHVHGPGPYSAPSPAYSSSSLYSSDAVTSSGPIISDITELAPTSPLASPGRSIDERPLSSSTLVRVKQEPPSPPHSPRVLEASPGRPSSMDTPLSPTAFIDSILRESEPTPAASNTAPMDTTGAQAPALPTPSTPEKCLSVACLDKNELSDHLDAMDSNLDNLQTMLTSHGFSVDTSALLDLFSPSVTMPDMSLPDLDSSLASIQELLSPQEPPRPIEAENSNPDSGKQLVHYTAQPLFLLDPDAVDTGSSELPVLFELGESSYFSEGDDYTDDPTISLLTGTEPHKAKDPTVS
Put plainly: decrease of HSF1-responsive luciferase luminescence – cell-based, NIH3T3, dose retest, confirmation (AID 2382).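 Further: NIH3T3 fibroblasts with HSF1-driven luciferase reporter stressed by proteasome inhibitor MG132; luminescence from HSF1-driven luciferase expression after 8 hours of MG132 stress.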 It counts as functional.

Assay [13] in a line: HEK-293T viability loss after treatment – luminescence, T-cell screen hits, cytotoxicity control for TCR NF-kB inhibitor project, dose response (AID 489026).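 Further: cells exposed to compound about 14 hours before the viability readout.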 It counts as functional, cell-based.
For the next assay, the target named is Protein Rev (Human immunodeficiency virus type 1 group M subtype B (isolate WMJ22)(HIV-1), UniProt P05866). Briefly: inhibitors of Rev protein–RRE RNA complex – biochemical, protein-RNA interaction, dose response (AID 842). The arrangement: species or system Human immunodeficiency virus 1.
Chain of Protein Rev (P05866 whole entry): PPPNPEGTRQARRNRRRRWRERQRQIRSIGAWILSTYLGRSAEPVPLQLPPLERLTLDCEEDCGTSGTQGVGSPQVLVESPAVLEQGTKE
Assay [14] can be described thus: HPDE-C7 pancreatic duct cell viability loss – fluorescence, HTS (AID 430). The note with it: Homo sapiens. It counts as functional, cell-based.
Assay [15] is described as follows: viability loss of HPDE-C7K cells – cell-based, fluorescence, HTS, primary screen (AID 431). It counts as functional. The conditions noted are these: Homo sapiens.
For assay [16], the target named is Neurotensin receptor type 1 (Homo sapiens, UniProt P30989). It counts as functional.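 Further: Image-based confirmatory dose-response assay measuring agonist activity at NTR1; NTR1-expressing U2OS osteosarcoma cells imaged for beta-arrestin GFP spot formation; agonist potency where compounds increase beta-arrestin recruitment.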
Chain of Neurotensin receptor type 1 (P30989 whole entry): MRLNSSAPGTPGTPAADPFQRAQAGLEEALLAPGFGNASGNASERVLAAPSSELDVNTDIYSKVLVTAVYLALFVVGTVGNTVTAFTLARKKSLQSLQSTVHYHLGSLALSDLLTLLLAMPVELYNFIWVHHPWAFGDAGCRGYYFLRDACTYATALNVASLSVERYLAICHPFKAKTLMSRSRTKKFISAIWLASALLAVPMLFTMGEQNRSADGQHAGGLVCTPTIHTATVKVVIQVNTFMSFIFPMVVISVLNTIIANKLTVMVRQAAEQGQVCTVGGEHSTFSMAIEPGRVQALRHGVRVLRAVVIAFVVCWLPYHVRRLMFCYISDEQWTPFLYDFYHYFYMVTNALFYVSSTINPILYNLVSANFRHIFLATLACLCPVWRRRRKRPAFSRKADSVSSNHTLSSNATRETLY
Assay [17] addresses T2, Fatty acid synthase (Homo sapiens, UniProt P49327). Briefly: inhibition of human FAS-TE enzyme activity – biochemical, endpoint fluorescence intensity, uHTS hits, dose response (AID 624327).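 Further: fluorescence from hydrolysis of an O-methyl fluorescein acyl ester substrate by the enzyme.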 It counts as functional.
Assay [18] has as its target T2, Fatty acid synthase. Put plainly: inhibition of human FAS-TE enzyme activity – biochemical, kinetic fluorescence intensity, dose response (AID 624326).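 Further: rate of fluorescence rise from hydrolysis of a fluorogenic O-methyl fluorescein ester substrate.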 It counts as functional.

Activity calls are given as the source filed them. A value given as a limit tells only on which side of the number the result lay.

T2 sequence (P49327 whole entry): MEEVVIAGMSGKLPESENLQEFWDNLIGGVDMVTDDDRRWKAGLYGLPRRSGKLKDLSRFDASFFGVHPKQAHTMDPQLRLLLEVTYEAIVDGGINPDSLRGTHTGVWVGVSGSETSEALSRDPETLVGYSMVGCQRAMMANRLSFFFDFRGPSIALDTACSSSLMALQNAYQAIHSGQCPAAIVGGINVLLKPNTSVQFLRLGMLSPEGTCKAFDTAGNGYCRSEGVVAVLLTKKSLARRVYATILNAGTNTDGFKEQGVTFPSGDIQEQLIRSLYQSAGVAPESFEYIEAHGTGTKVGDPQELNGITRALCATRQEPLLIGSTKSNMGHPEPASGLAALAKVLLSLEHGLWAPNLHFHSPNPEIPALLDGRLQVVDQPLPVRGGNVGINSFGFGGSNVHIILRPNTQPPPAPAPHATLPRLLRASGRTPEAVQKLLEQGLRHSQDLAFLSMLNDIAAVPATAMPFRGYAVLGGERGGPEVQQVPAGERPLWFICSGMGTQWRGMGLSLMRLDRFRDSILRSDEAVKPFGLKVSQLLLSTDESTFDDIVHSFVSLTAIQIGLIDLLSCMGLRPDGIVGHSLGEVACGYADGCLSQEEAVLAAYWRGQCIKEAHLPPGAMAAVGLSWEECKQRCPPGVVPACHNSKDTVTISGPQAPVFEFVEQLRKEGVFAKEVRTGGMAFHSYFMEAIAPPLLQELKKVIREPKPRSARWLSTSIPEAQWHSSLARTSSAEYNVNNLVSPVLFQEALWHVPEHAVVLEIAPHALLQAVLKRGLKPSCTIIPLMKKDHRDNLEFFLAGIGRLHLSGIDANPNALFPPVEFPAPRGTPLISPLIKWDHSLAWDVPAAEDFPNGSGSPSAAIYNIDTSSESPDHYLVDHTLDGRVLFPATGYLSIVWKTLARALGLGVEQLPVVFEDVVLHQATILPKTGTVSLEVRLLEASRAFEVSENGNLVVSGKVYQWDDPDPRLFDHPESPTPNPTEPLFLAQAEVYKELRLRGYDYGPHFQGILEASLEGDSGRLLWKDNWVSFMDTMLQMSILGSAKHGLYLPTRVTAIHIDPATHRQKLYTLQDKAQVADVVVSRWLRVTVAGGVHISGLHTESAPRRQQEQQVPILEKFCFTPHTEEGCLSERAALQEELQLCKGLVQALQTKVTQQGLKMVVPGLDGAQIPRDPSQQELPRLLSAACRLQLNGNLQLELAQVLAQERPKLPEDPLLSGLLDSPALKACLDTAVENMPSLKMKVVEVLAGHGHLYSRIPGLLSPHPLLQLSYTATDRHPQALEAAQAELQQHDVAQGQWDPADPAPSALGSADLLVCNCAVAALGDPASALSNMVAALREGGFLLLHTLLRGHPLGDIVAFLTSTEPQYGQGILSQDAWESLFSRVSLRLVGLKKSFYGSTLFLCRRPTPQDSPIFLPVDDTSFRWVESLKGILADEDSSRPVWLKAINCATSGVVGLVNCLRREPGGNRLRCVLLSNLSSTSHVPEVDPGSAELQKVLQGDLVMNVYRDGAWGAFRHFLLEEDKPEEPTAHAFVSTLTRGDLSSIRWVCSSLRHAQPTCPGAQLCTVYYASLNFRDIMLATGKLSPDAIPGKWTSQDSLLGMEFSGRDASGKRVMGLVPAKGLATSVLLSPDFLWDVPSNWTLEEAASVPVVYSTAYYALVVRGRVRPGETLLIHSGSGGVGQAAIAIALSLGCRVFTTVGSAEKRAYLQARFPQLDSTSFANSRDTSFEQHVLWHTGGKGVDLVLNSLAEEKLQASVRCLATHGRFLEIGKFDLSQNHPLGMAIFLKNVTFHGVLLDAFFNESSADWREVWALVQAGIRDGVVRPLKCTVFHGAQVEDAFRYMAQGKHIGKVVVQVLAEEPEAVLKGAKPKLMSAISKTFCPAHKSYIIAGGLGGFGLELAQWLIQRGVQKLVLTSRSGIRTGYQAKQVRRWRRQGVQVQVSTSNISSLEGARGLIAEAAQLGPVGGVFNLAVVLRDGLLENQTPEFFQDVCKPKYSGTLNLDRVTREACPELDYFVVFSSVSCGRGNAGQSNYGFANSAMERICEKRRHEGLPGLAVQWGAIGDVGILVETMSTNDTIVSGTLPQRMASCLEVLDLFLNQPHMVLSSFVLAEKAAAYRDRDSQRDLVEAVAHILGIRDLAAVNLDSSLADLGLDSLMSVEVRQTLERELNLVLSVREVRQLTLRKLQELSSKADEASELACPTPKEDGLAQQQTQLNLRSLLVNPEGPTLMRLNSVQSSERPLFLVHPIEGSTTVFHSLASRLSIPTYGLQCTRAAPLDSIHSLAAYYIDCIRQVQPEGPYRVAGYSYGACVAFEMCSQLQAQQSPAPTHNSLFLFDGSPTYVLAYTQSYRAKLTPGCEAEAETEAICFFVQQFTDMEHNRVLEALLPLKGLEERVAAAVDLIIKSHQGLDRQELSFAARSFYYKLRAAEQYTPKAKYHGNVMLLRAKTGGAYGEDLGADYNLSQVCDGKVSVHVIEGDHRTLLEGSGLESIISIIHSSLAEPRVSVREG
Chain of Serine/threonine-protein phosphatase PP1-alpha catalytic subunit (P62136 whole entry): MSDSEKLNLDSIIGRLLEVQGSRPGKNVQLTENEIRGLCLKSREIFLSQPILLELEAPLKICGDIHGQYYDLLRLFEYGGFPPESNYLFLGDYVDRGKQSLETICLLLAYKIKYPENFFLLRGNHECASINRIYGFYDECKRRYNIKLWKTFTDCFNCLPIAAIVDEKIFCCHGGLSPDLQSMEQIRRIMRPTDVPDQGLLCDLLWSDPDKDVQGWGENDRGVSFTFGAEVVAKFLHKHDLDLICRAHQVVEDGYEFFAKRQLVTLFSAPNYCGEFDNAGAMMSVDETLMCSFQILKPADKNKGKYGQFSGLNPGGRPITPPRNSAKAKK

In general, AC50 refers to the midpoint of the concentration-response curve, whichever way the signal moves. Consider `Cc1cc(C)n(CC(=O)NC2CCCc3c2cnn3-c2ccc(C)c(C)c2)n1` (stereo unspecified), for which, in assay [1], the AC50 was 0.819 µM (active).
One may read the IC50 as the concentration that gives 50% inhibition. What is called EC50 is the concentration at which the effect is half-maximal. What is called CC50 is the concentration at which the toxic effect on the cells reaches its halfway point. Take `Cc1cccc(Nc2nc(-c3ccccn3)cs2)n1`: the IC50 is 4.96 µM (active) in [2]; > 10 µM (inconclusive) in assay [3]; > 22.3 µM (not active) in assay [5]; 29.6 µM (active) at Nonstructural protein 1; 0.27 µM (active) in the assay “cells”. Besides, the EC50 is 0.503 µM (active) in [4], 8.56 µM (active) in assay [6] and 7.24 µM (active) in assay [7]. Also, the results for the 50% cytotoxic concentration (CC50) in [8] and in assay [9] were 21.8 µM (active) and 11.6 µM (active), respectively.
`COc1ccccc1C(=O)N(CCC1CCCN1C)c1nc2ccccc2s1` (stereo unspecified): the values for the IC50 in assay [10], in assay [11] and in assay [13] were 21.4 µM (not active), 29.7 µM (not active) and > 80 µM (inactive), respectively. The half-maximal effective concentration (EC50) in assay [12] was < 0.16 µM (active).
For the molecule `CN(C)CC(O)COc1ccc(-c2ccc(C#N)cc2)cc1` (stereo unspecified), the IC50 on Protein Rev was > 79.4 µM (not active). Also, the EC50 in [14] and in assay [15] was > 20 µM (not active) each time.
For the molecule `C[C@@H](NC(=O)c1[nH]cnc1C(=O)Nc1ccc(Cl)cc1)c1ccccc1`, the EC50 in assay [16] is 19.9 µM (active). Also, the results for the IC50 on Fatty acid synthase [17] and on Fatty acid synthase [18] were 8.13 µM (active) and 7.01 µM (active), respectively.
